Results from patent US20240083857A1, “2-Methyl-Quinazolines” (Bayer Pharma Aktiengesellschaft, priority 2017, published 2024).

How the values were obtained:
[1] = biological target: human SOS1 (loading of human K-Ras^G12C-GDP with fluorescent GTP-analog) (Homo sapiens, UniProt Q07889); experiment: Biochemical assay 3: K-Ras^G12C activation assay by hSOS1 (HTRF); conditions: no GTP; for IC50: read-out: Assay 3 (KRAS-Activation by SOS no GTP) activity expressed as IC50; for inhibition at 20 µM: read-out: Assay 3 (KRAS-Activation by SOS no GTP) activity expressed as % inhibition at 20 μM
[2] = biological target: Epidermal Growth Factor Receptor (EGFR) (Homo sapiens (Human), UniProt P00533); experiment: EGFR kinase assay (TR-FRET); format: biochemical; conditions: values given in μM; read-out: EGFR kinase inhibition IC50
Chain of Epidermal Growth Factor Receptor (EGFR) (P00533 25-1210): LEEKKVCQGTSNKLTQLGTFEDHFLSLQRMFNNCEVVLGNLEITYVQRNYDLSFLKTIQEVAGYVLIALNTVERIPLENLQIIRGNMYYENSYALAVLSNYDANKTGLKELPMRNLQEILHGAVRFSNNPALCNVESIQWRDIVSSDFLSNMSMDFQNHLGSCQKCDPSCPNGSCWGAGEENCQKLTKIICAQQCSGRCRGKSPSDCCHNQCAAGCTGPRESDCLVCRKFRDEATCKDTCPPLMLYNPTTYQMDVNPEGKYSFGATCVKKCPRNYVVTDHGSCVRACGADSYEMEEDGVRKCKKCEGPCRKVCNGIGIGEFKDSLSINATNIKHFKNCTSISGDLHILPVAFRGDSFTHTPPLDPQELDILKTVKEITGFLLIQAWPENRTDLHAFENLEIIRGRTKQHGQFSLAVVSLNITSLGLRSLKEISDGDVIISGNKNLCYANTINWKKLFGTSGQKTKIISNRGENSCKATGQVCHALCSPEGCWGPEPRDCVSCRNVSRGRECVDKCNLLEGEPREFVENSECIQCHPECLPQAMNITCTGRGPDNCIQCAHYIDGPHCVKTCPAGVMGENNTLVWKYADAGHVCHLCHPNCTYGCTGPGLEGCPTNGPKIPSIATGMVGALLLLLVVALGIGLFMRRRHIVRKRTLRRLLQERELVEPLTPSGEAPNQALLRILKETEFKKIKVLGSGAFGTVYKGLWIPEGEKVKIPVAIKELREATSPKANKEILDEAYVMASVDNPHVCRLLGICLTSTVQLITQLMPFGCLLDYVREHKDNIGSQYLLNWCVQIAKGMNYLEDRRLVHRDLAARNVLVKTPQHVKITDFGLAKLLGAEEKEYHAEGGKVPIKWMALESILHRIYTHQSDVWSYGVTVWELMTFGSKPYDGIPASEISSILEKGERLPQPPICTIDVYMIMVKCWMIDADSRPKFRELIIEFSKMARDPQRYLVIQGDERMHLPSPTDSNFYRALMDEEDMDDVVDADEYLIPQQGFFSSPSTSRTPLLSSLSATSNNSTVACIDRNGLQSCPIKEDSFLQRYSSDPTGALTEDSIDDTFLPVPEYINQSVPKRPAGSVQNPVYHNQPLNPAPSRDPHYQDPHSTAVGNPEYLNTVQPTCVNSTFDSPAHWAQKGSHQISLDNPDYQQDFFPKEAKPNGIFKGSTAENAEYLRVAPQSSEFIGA
Method in brief: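 EGFR purified from A431 cells was preincubated with compound 15 min at 22° C in pH 7.0 Hepes buffer with MgCl2, MnCl2 and vanadate before reaction with a biotinylated peptide. After EDTA stop, phosphopeptide was detected by TR-FRET (anti-phosphotyrosine Tb-cryptate, streptavidin-XL665) as the 665/620 nm emission ratio.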

Structure (SMILES)	IC50 [1]	IC50 [2]	inhibition at 20 µM [1]
COc1cc2nc(C)nc(NC(C)c3ccc(-c4cc[nH]n4)s3)c2cc1OC (stereo not drawn) [Example 222, 6,7-dimethoxy-2-methyl-N-{1-[5-(1H-pyrazol-3-yl)thiophen-2-yl]ethyl}quinazolin-4-amine]	13.5 µM	> 20 µM	–
COc1cc2nc(C)nc(NC(C)c3ccc(-c4ccccc4CN4CCC(F)(F)C4)s3)c2cc1OC (stereo not drawn) [Example 223, N-[1-(5-{2-[(3,3-difluoropyrrolidin-1-yl)methyl]phenyl}thiophen-2-yl)ethyl]-6,7-dimethoxy-2-methylquinazolin-4-amine]	7.18 µM	> 20 µM	–
COc1cc2nc(C)nc(NC(C)c3ccc4nsnc4c3)c2cc1OC (stereo not drawn) [Example 229, N-[1-(2,1,3-benzothiadiazol-5-yl)ethyl]-6,7-dimethoxy-2-methylquinazolin-4-amine]	–	> 20 µM	29%
CCOc1ccccc1-c1ccc(C(C)Nc2nc(C)nc3cc(OC)c(OC)cc23)s1 (stereo not drawn) [Example 232, N-{1-[5-(2-ethoxyphenyl)thiophen-2-yl]ethyl}-6,7-dimethoxy-2-methylquinazolin-4-amine]	4.04 µM	> 20 µM	–
COc1cc2nc(C)nc(NC(C)c3ccc(-c4ccc(F)c5ccccc45)s3)c2cc1OC (stereo not drawn) [Example 233, N-{1-[5-(4-fluoronaphthalen-1-yl)thiophen-2-yl]ethyl}-6,7-dimethoxy-2-methylquinazolin-4-amine]	16.1 µM	> 20 µM	–
COc1cc2nc(C)nc(NC(C)c3ccc(-c4ccc(F)cc4CN)s3)c2cc1OC (stereo not drawn) [Example 234, N-[1-{5-[2-(aminomethyl)-4-fluorophenyl]thiophen-2-yl}ethyl]-6,7-dimethoxy-2-methylquinazolin-4-amine]	0.0921 µM	> 20 µM	–
COc1cc2nc(C)nc(NC(C)c3ccc(C4=CCOCC4)s3)c2cc1OC (stereo not drawn) [Example 235, N-{1-[5-(3,6-dihydro-2H-pyran-4-yl)thiophen-2-yl]ethyl}-6,7-dimethoxy-2-methylquinazolin-4-amine]	5.27 µM	> 20 µM	–
COc1cc2nc(C)nc(NC(C)c3ccc(-c4ccccc4CN4CCC(N(C)C)C4)s3)c2cc1OC (stereo not drawn) [Example 238, N-{1-[5-(2-{[3-(dimethylamino)pyrrolidin-1-yl]methyl}phenyl)thiophen-2-yl]ethyl}-6,7-dimethoxy-2-methylquinazolin-4-amine]	0.216 µM	> 20 µM	–
COc1cc2nc(C)nc(NC(C)c3csc(Br)c3)c2cc1OC (stereo not drawn) [Example 239, N-[1-(5-bromothiophen-3-yl)ethyl]-6,7-dimethoxy-2-methylquinazolin-4-amine]	14.3 µM	> 20 µM	–
COc1cc2nc(C)nc(NC(C)c3ccc(-c4ccccc4C(N)=O)s3)c2cc1OC (stereo not drawn) [Example 240, 2-(5-{1-[(6,7-dimethoxy-2-methylquinazolin-4-yl)amino]ethyl}thiophen-2-yl)benzamide]	7.57 µM	> 20 µM	–
COc1cc2nc(C)nc(NC(C)c3ccc(-c4cccc(C(N)=O)c4)s3)c2cc1OC (stereo not drawn) [Example 241, 3-(5-{1-[(6,7-dimethoxy-2-methylquinazolin-4-yl)amino]ethyl}thiophen-2-yl)benzamide]	1.31 µM	> 20 µM	–
COc1cc2nc(C)nc(NC(C)c3ccc(-c4ccc(C(N)=O)cc4)s3)c2cc1OC (stereo not drawn) [Example 242, 4-(5-{1-[(6,7-dimethoxy-2-methylquinazolin-4-yl)amino]ethyl}thiophen-2-yl)benzamide]	3.01 µM	> 20 µM	–
COc1cc2nc(C)nc(NC(C)c3ccc(-c4ccccc4N)s3)c2cc1OC (stereo not drawn) [Example 243, N-{1-[5-(2-aminophenyl)thiophen-2-yl]ethyl}-6,7-dimethoxy-2-methylquinazolin-4-amine]	0.418 µM	> 20 µM	–
COc1cc2nc(C)nc(NC(C)c3ccc(-c4ccccc4CO)s3)c2cc1OC (stereo not drawn) [Example 244, [2-(5-{1-[(6,7-dimethoxy-2-methylquinazolin-4-yl)amino]ethyl}thiophen-2-yl)phenyl]methanol]	0.444 µM	> 20 µM	–
COc1cc2nc(C)nc(NC(C)c3ccc(-c4ccccc4C#N)s3)c2cc1OC (stereo not drawn) [Example 245, 2-(5-{1-[(6,7-dimethoxy-2-methylquinazolin-4-yl)amino]ethyl}thiophen-2-yl)benzonitrile]	0.918 µM	> 20 µM	–
COc1cc2nc(C)nc(NC(C)c3ccc(-c4cccc5cn[nH]c45)s3)c2cc1OC (stereo not drawn) [Example 246, N-{1-[5-(1H-indazol-7-yl)thiophen-2-yl]ethyl}-6,7-dimethoxy-2-methylquinazolin-4-amine]	–	> 20 µM	44%
COc1cc2nc(C)nc(NC(C)c3ccc(-c4cccc5[nH]ncc45)s3)c2cc1OC (stereo not drawn) [Example 247, N-{1-[5-(1H-indazol-4-yl)thiophen-2-yl]ethyl}-6,7-dimethoxy-2-methylquinazolin-4-amine]	2.7 µM	> 20 µM	–
C=Cc1ccccc1-c1ccc(C(C)Nc2nc(C)nc3cc(OC)c(OC)cc23)s1 (stereo not drawn) [Example 248, N-{1-[5-(2-ethenylphenyl)thiophen-2-yl]ethyl}-6,7-dimethoxy-2-methylquinazolin-4-amine]	8.43 µM	> 20 µM	–
COc1cc2nc(C)nc(NC(C)c3ccc(-c4cnn(CC(N)=O)c4)s3)c2cc1OC (stereo not drawn) [Example 249, 2-[4-(5-{1-[(6,7-dimethoxy-2-methylquinazolin-4-yl)amino]ethyl}thiophen-2-yl)-1H-pyrazol-1-yl]acetamide]	8.79 µM	> 20 µM	–
CNCc1ccccc1-c1ccc(C(C)Nc2nc(C)nc3cc(OC)c(OC)cc23)s1 (stereo not drawn) [Example 250, 6,7-dimethoxy-2-methyl-N-[1-(5-{2-[(methylamino)methyl]phenyl}thiophen-2-yl)ethyl]quinazolin-4-amine]	0.0704 µM	> 20 µM	–
COc1cc2nc(C)nc(NC(C)c3csc(-c4cnn(CCO)c4)c3)c2cc1OC (stereo not drawn) [Example 251, 2-[4-(4-{1-[(6,7-dimethoxy-2-methylquinazolin-4-yl)amino]ethyl}thiophen-2-yl)-1H-pyrazol-1-yl]ethanol]	–	> 20 µM	52%
COc1cc2nc(C)nc(NC(C)c3ccc(-c4ccccc4CN)s3)c2cc1OC (stereo not drawn) [Example 252, N-[1-{5-[2-(aminomethyl)phenyl]thiophen-2-yl}ethyl]-6,7-dimethoxy-2-methylquinazolin-4-amine]	0.103 µM	> 20 µM	–
COc1cc2nc(C)nc(NC(C)c3csc(-c4cnc5n4CCC5)c3)c2cc1OC (stereo not drawn) [Example 253, N-{1-[5-(6,7-dihydro-5H-pyrrolo[1,2-a]imidazol-3-yl)thiophen-3-yl]ethyl}-6,7-dimethoxy-2-methylquinazolin-4-amine]	5.8 µM	> 20 µM	–
COc1cc2nc(C)nc(NC(C)c3csc(-c4cnn(CCN5CCCC5)c4)c3)c2cc1OC (stereo not drawn) [Example 254, 6,7-dimethoxy-2-methyl-N-[1-(5-{1-[2-(pyrrolidin-1-yl)ethyl]-1H-pyrazol-4-yl}thiophen-3-yl)ethyl]quinazolin-4-amine]	3.45 µM	> 20 µM	–
COc1cc2nc(C)nc(NC(C)c3csc(-c4ccc(F)cc4CN)c3)c2cc1OC (stereo not drawn) [Example 255, N-[1-{5-[2-(aminomethyl)-4-fluorophenyl]thiophen-3-yl}ethyl]-6,7-dimethoxy-2-methylquinazolin-4-amine]	0.39 µM	> 20 µM	–
COc1cc2nc(C)nc(N[C@H](C)c3cccc(-c4cnn(CCO)c4)c3)c2cc1OC [Example 256, 2-[4-(3-{(1R)-1-[(6,7-dimethoxy-2-methylquinazolin-4-yl)amino]ethyl}phenyl)-1H-pyrazol-1-yl]ethanol]	1.35 µM	> 20 µM	–
COc1cc2nc(C)nc(N[C@H](C)c3cccc(-c4cnn(CCN5CCCC5)c4)c3)c2cc1OC [Example 257, 6,7-dimethoxy-2-methyl-N-[(1R)-1-(3-{1-[2-(pyrrolidin-1-yl)ethyl]-1H-pyrazol-4-yl}phenyl)ethyl]quinazolin-4-amine]	0.852 µM	> 20 µM	–
